Laboratory results from patent US7736881B2, “Antibacterial and herbicidal compounds and system for screening the same” (University of Utah Research Foundation, priority 2000, dated 2010).
“Also recorded” adds a separate entry of the source.

How the values were obtained:
[1] = test system: Strain JC7623 dxs::pCAT53-3 transformed with pLME10 (R. capsulatus dxsB in pET11-A); experiment: Screen for antimicrobial agent using strain JC7623 dxs::pCAT53-3 transformed with pLME10 (plate growth); type: cell-based, E. coli
[2] = test system: Strain RMC25 electroporated with pLME10 (R. capsulatus dxsB in pET11-A); experiment: Screen for antimicrobial agent using strain RMC25 electroporated with pLME10 (plate growth); type: cell-based, S. typhimurium
[3] = LB/kan/ME/fosmidomycin, fosmidomycin ~4 μg/mL, ME 50 mg/L, after 1 day
[4] = after 2.5 days, fosmidomycin ~4 μg/mL, ME 50 mg/L

## O=CN(O)CCCP(=O)(O)O [fosmidomycin]
[1]
  growth on Plate F: microcolonies
  growth on plate F compared with plate C (LB/kan/MVA/arabinose without fosmidomycin): equal
[1]; LB/ka/IPTG/fosmidomycin, fosmidomycin ~4 μg/mL, IPTG 1 mM, after 2.5 days
  growth on Plate E: no growth
[1]; [3]
  growth on Plate G: colonies
[1]; [4]
  growth on plate G compared with plate D (LB/kan/ME without fosmidomycin): equal
[2]
  growth on Plate F: colonies
  growth on plate F compared with plate C (LB/kan/MVA/arabinose without fosmidomycin): equal
[2]; LB/kan/IPTG/fosmidomycin, fosmidomycin ~4 μg/mL, IPTG 1 mM, after 2.5 days
  growth on Plate E: no growth; also recorded: growth is inhibited
[2]; [3]
  growth on Plate G: colonies
[2]; [4]
  growth on plate G compared with plate D (LB/kan/ME without fosmidomycin): equal
